Experimental data reported in patent US11781160B2, “Methods for the production of methacrylates” (priority 2018, dated 2023).

Legend:
[1] = system: E. coli BW25113 isolate 2-rob(R156H) rpoC(L361R) ilvN(C41Y) ygbK(A294E) IpxM(168_185del); experiment: Growth kinetics of isolated strain 2 with 20% v/v BMA
[2] = system: E. coli MG1655 acrR(T32fs); experiment: Growth in MSX medium with 20% (v/v) BMA, single mutation strain; assay type: cell-based, Escherichia coli; settings: 20% (v/v) BMA added immediately after inoculation
[3] = system: gene transcription in strain 21; experiment: Transcriptome analysis with added BMA, strain 21
Method: (§1) Transcriptome analysis was carried out to characterize transcriptional activity in mutant microorganisms using standard methods.
(§2) Sample Preparation • 1) Streak strains onto fresh MSX agar (15 g/L) plates directly from the cryostocks and incubate overnight at 37° C. • 2) Isolate single colonies and inoculate pre-cultures in MSX, using 50 ml shake flasks. Incubate overnight at 37° C. and 250 rpm. • 3) Inoculate cultures in MSX to an initial OD600 of 0.05, using 250 mL pyrex shake flasks with 24/29 neck join. Incubate at 37° C. and 250 rpm. Do 4 biological replicates (3 replicates for sequencing plus one backup)—4 flasks per strain. • 4) Seal shake flasks with sterile Suba seals. To monitor OD, take samples using a sterile syringe and needle after first swabbing the Suba seals with 70% ethanol. Monitor OD. • 5) When OD reaches 0.3, collect first sample for RNA extraction (“before” sample) into a pre-chilled falcon. Keep samples on ice. • 6) Immediately after, add 20% (v/v) BMA. Re-incubate cultures. • 7) Quickly process the samples according to the RNeasy kit protocol, until step 6 of protocol 1. Always keep samples on ice and store it at −80° C. until further use, if possible, flash freeze in liquid nitrogen it before storing. • 8) One hour after the first sample collection/BMA addition, collect the second sample for RNA extraction (“after” sample). Proceed as explained before. • 9) Continue to monitor the OD until the cultures reach 24 h. • To summarise, each strain tested will have 6 samples to send for sequencing, 3 collected right before the addition and 3 collected one hour after, plus 1 “back-up” for before and after, in case something goes wrong during extraction (8 samples total). Besides the WT strain with the addition of BMA, samples were also collected from a WT culture with no BMA, one hour after reaching OD of 0.3, as a control.
(§3) Transcription was compared for a double mutant and the wild-type in the presence and absence of BMA relative to the level in the wild type in the absence of BMA. For the avoidance of doubt the level in the table is the ratio of the level in the strain under the BMA exposure relative to the level in the wild type in the absence of added BMA.

[4] = system: gene transcription in double mutant; experiment: Transcriptome analysis with added BMA, double mutant
Method: as §1, §2, §3

E. coli BW 25113 = experiment: Growth of E. coli BW25113 (wild type) with BMA in M9 minimal medium
E. coli BW25113 ΔacrR = experiment: Growth in MSX medium with 20% (v/v) BMA, knock-out strain; assay type: cell-based, Escherichia coli; settings: 20% (v/v) BMA added immediately after inoculation
[5] = system: E. coli BW25113 isolate 3-rob(R156H) ilvN(C41Y) phoP(L11F) acrB(V448L) acrR(indels); experiment: Growth kinetics of isolated strain 3 with 20% v/v BMA
[6] = system: gene transcription in strain 22; experiment: Transcriptome analysis with added BMA, strain 22
Method: as §1, §2, §3

[7] = system: gene transcription in strain 5; experiment: Transcriptome analysis with added BMA, strain 5
Method: as §1, §2, §3

[8] = BMA concentration increased further to 20% v/v
[9] = Wild Type, 0.05% BMA (v/v), Table 2.2
[10] = Wild Type, 0.1% BMA (v/v), Table 2.2

C=C(C)C(=O)OCCCC [BMA, butyl 2-methylprop-2-enoate]
Growth rate [1]: 0.532 ± 0.028 h⁻¹
Lag time [1]: 6 h
Max cell concentration [1]: 0.651 ± 0.052 g/L
Growth in the presence of BMA [2]: able to grow
IdhA transcription level relative to wild type without BMA [3]: 20.48
acrA transcription level relative to wild type without BMA [3]: 5.63
acrB transcription level relative to wild type without BMA [3]: 8.93
adiY transcription level relative to wild type without BMA [3]: 10.74
ariR transcription level relative to wild type without BMA [3]: 6.13
asr transcription level relative to wild type without BMA [3]: 11.63
bssR transcription level relative to wild type without BMA [3]: 198.48
ibpA transcription level relative to wild type without BMA [3]: 29.21
ibpB transcription level relative to wild type without BMA [3]: 30.97
narG transcription level relative to wild type without BMA [3]: 65.34
nirB transcription level relative to wild type without BMA [3]: 39.43
nirD transcription level relative to wild type without BMA [3]: 42.50
pspA transcription level relative to wild type without BMA [3]: 21.16
pspB transcription level relative to wild type without BMA [3]: 14.98
pspD transcription level relative to wild type without BMA [3]: 14.80
pspc transcription level relative to wild type without BMA [3]: 14.67
raiA transcription level relative to wild type without BMA [3]: 22.55
rmf transcription level relative to wild type without BMA [3]: 36.77
soxS transcription level relative to wild type without BMA [3]: 1.08
spy transcription level relative to wild type without BMA [3]: 1.77
ybfA transcription level relative to wild type without BMA [3]: 33.06
ybhG transcription level relative to wild type without BMA [3]: 9.26
ybiH transcription level relative to wild type without BMA [3]: 7.20
ydgU transcription level relative to wild type without BMA [3]: 6.39
yhjx transcription level relative to wild type without BMA [3]: 3.11
yibT transcription level relative to wild type without BMA [3]: 95.47
ymgA transcription level relative to wild type without BMA [3]: 2.43
ymgC transcription level relative to wild type without BMA [3]: 1.53
ynfM transcription level relative to wild type without BMA [3]: 65.39
yohk transcription level relative to wild type without BMA [3]: 7.09
acrA transcription level relative to wild type without BMA ([4]; LM double mutant): 5.13
acrB transcription level relative to wild type without BMA ([4]; LM double mutant): 4.99
IdhA transcription level relative to wild type without BMA ([4]; double mutant): 30.42
adiY transcription level relative to wild type without BMA ([4]; double mutant): 10.80
ariR transcription level relative to wild type without BMA ([4]; double mutant): 8.91
asr transcription level relative to wild type without BMA ([4]; double mutant): 711.06
bssR transcription level relative to wild type without BMA ([4]; double mutant): 5.47
ibpA transcription level relative to wild type without BMA ([4]; double mutant): 80.35
ibpB transcription level relative to wild type without BMA ([4]; double mutant): 672.54
narG transcription level relative to wild type without BMA ([4]; double mutant): 3.23
nirB transcription level relative to wild type without BMA ([4]; double mutant): 3.28
nirD transcription level relative to wild type without BMA ([4]; double mutant): 3.57
pspA transcription level relative to wild type without BMA ([4]; double mutant): 27.60
pspB transcription level relative to wild type without BMA ([4]; double mutant): 11.73
pspD transcription level relative to wild type without BMA ([4]; double mutant): 10.00
pspc transcription level relative to wild type without BMA ([4]; double mutant): 11.09
raiA transcription level relative to wild type without BMA ([4]; double mutant): 36.36
rmf transcription level relative to wild type without BMA ([4]; double mutant): 17.63
soxS transcription level relative to wild type without BMA ([4]; double mutant): 20.93
spy transcription level relative to wild type without BMA ([4]; double mutant): 99.47
ybfA transcription level relative to wild type without BMA ([4]; double mutant): 59.92
ybhG transcription level relative to wild type without BMA ([4]; double mutant): 10.78
ybiH transcription level relative to wild type without BMA ([4]; double mutant): 7.73
ydgU transcription level relative to wild type without BMA ([4]; double mutant): 188.87
yhjx transcription level relative to wild type without BMA ([4]; double mutant): 2.32
yibT transcription level relative to wild type without BMA ([4]; double mutant): 43.57
ymgA transcription level relative to wild type without BMA ([4]; double mutant): 9.97
ymgC transcription level relative to wild type without BMA ([4]; double mutant): 11.68
ynfM transcription level relative to wild type without BMA ([4]; double mutant): 29.92
yohk transcription level relative to wild type without BMA ([4]; double mutant): 19.51
Growth rate (E. coli BW 25113; 0.01% v/v BMA): 0.617 ± 0.009 h⁻¹
Lag phase (E. coli BW 25113; 0.01% v/v BMA): 2 h
Max cell concentration (E. coli BW 25113; 0.01% v/v BMA): 1.365 ± 0.120 g/L
Growth rate (E. coli BW 25113; 0.05% v/v BMA): 0.517 ± 0.014 h⁻¹
Lag phase (E. coli BW 25113; 0.05% v/v BMA): 4 h
Max cell concentration (E. coli BW 25113; 0.05% v/v BMA): 1.269 ± 0.074 g/L
Growth rate (E. coli BW 25113; 0.1% v/v BMA): 0.519 ± 0.010 h⁻¹
Lag phase (E. coli BW 25113; 0.1% v/v BMA): 12 h
Max cell concentration (E. coli BW 25113; 0.1% v/v BMA): 1.335 ± 0.074 g/L
Consistency of growth (E. coli BW 25113; [8]): growth was inconsistent
Incubation time after which cell growth was observed (E. coli BW 25113; [8]): 24 to 36 h
BMA concentration that inhibits the growth of E. coli (E. coli BW 25113; M9 minimal medium, 37° C.): above 0.05 % v/v
Growth rate (E. coli BW 25113; [9]): 0.517 ± 0.014 h⁻¹
Lag time (E. coli BW 25113; [9]): 4 h
Max cell concentration (E. coli BW 25113; [9]): 1.269 ± 0.074 g/L
Growth rate (E. coli BW 25113; [10]): 0.519 ± 0.010 h⁻¹
Lag time (E. coli BW 25113; [10]): 12 h
Max cell concentration (E. coli BW 25113; [10]): 1.335 ± 0.074 g/L
Time after inoculation at which significant growth was exhibited (E. coli BW 25113; […], same conditions): 12 h
Growth in the presence of BMA (E. coli BW25113 ΔacrR): unable to grow
Growth rate [5]: 0.566 ± 0.010 h⁻¹
Lag time [5]: 4 h
Max cell concentration [5]: 0.790 ± 0.076 g/L
IdhA transcription level relative to wild type without BMA [6]: 25.80
acrA transcription level relative to wild type without BMA [6]: 7.44
acrB transcription level relative to wild type without BMA [6]: 7.17
adiY transcription level relative to wild type without BMA [6]: 23.19
ariR transcription level relative to wild type without BMA [6]: 12.95
asr transcription level relative to wild type without BMA [6]: 225.15
bssR transcription level relative to wild type without BMA [6]: 71.24
ibpA transcription level relative to wild type without BMA [6]: 70.31
ibpB transcription level relative to wild type without BMA [6]: 107.99
narG transcription level relative to wild type without BMA [6]: 61.85
nirB transcription level relative to wild type without BMA [6]: 20.40
nirD transcription level relative to wild type without BMA [6]: 26.97
pspA transcription level relative to wild type without BMA [6]: 47.39
pspB transcription level relative to wild type without BMA [6]: 35.43
pspD transcription level relative to wild type without BMA [6]: 38.90
pspc transcription level relative to wild type without BMA [6]: 39.73
raiA transcription level relative to wild type without BMA [6]: 52.61
rmf transcription level relative to wild type without BMA [6]: 17.43
soxS transcription level relative to wild type without BMA [6]: 3.66
spy transcription level relative to wild type without BMA [6]: 45.77
ybfA transcription level relative to wild type without BMA [6]: 36.33
ybhG transcription level relative to wild type without BMA [6]: 21.92
ybiH transcription level relative to wild type without BMA [6]: 16.75
ydgU transcription level relative to wild type without BMA [6]: 94.74
yhjx transcription level relative to wild type without BMA [6]: 902.70
yibT transcription level relative to wild type without BMA [6]: 77.30
ymgA transcription level relative to wild type without BMA [6]: 6.44
ymgC transcription level relative to wild type without BMA [6]: 5.45
ynfM transcription level relative to wild type without BMA [6]: 61.15
yohk transcription level relative to wild type without BMA [6]: 19.75
IdhA transcription level relative to wild type without BMA [7]: 18.24
acrA transcription level relative to wild type without BMA [7]: 6.28
acrB transcription level relative to wild type without BMA [7]: 7.49
adiY transcription level relative to wild type without BMA [7]: 24.79
ariR transcription level relative to wild type without BMA [7]: 21.79
asr transcription level relative to wild type without BMA [7]: 160.42
bssR transcription level relative to wild type without BMA [7]: 20.35
ibpA transcription level relative to wild type without BMA [7]: 43.39
ibpB transcription level relative to wild type without BMA [7]: 174.50
narG transcription level relative to wild type without BMA [7]: 47.85
nirB transcription level relative to wild type without BMA [7]: 34.19
nirD transcription level relative to wild type without BMA [7]: 16.69
pspA transcription level relative to wild type without BMA [7]: 23.32
pspB transcription level relative to wild type without BMA [7]: 16.87
pspD transcription level relative to wild type without BMA [7]: 14.10
pspc transcription level relative to wild type without BMA [7]: 16.55
raiA transcription level relative to wild type without BMA [7]: 20.11
rmf transcription level relative to wild type without BMA [7]: 15.45
soxS transcription level relative to wild type without BMA [7]: 41.81
spy transcription level relative to wild type without BMA [7]: 20.88
ybfA transcription level relative to wild type without BMA [7]: 20.19
ybhG transcription level relative to wild type without BMA [7]: 18.33
ybiH transcription level relative to wild type without BMA [7]: 15.30
ydgU transcription level relative to wild type without BMA [7]: 48.46
yhjx transcription level relative to wild type without BMA [7]: 105.59
yibT transcription level relative to wild type without BMA [7]: 29.57
ymgA transcription level relative to wild type without BMA [7]: 16.41
ymgC transcription level relative to wild type without BMA [7]: 17.15
ynfM transcription level relative to wild type without BMA [7]: 40.65
yohk transcription level relative to wild type without BMA [7]: 16.04
